Test results published in patent publication US7060277B2 (priority 1996, dated 2006).
Values joined by “and” are separate entries in the source; they are usually repeats but may differ in a detail not shown here. Equal entries are not always repeated.

Test system: lethal dose of SEB in D-galactosamine-treated mouse model
Set-up: species or system BALB/c mice
Conditions: in vivo

Substance: lcT N K K K V T A Q E L D [pSEBLC(150–161)]
- Percent Survival: 29% and 22%
